# Experimental data reported in US5374621A (Regents of the University of California, priority 1991, dated 1994).
# What was measured:
# [1] = test system: heat induced edema in rat paws; assay: Heat injury to the skin: paw edema after immersion in 58° C. water; format: in vivo; details: for ED50 (nmol/kg), inhibition of heat-induced edema / ED50 (μg/kg), inhibition of heat-induced edema: % increase in paw water content 30 minutes after heat injury, as % of saline control
# Description: Peptides, obtained from Peninsula Laboratories or Bachem Laboratories, were dissolved in sterile saline and injected intravenously 10 minutes before exposure to heat.
# After removal of the saline-treated animal's paw from 58° C. water, the paw's skin became red, followed by progressive swelling from an initial volume of about 1.5 ml to a net increase of 0.77 ml within 5 minutes.
# To compare the potency of the peptides, the following method was used. Thirty minutes after heat injury, rats were killed with an over-dose of concentrated sodium pentobarbital, and both paws cut off at the ankle joint and weighed. All paws were then dried in an oven at 80° C. for 24 hours and re-weighed to obtain % increase in water content as: [formula]
# The rat was euthanized 30 minutes later with concentrated pentobarbital and both paws removed by cutting at the ankle joint and weighed. The paws were then dried at 80° C. for 24 hours. Controls received only saline at 0.1 ml/kg i.v. The increase in the water content of the heated paw was calculated as: heated paw (wet wt.--dry wt.)--unheated paw (wet wt.--dry wt.).
# substance P = assay: Salivary secretion induced by substance P injections; format: in vivo; details: substance P 40 μg/kg s.c., rat
# Text: Thus, a chemical (Such as illustrated by CP-96,345) that antagonizes the inflammatory mediator, substance P, is not sufficient to prevent edema after thermal injury.
# blood pressure = assay: Blood pressure (mean arterial pressure) after i.v. injection; format: in vivo; details: 10 nmol/kg i.v.; FIG. 4
# Description: Blood pressure was monitored of animals to which 10 nmol/kg of different compounds were administered i.v. One administration was of saline as control. […] Blood pressure was monitored at intervals over a thirty minute period after injection.
# [2] = test system: vascular leakage from brain cortex after freeze injury; assay: Cerebral cortex freeze injury: Monastral blue vascular leakage; format: in vivo, rat; details: 4 nmol/kg i.v. 10 minutes before freeze injury
# Description: (§1) Experiments were conducted on 260±6 (S.D.) male Sprague-Dawley rats from Simonsen Laboratories (Gilroy, Calif.). Animals were injected with sodium pentobarbital, 60 mg/kg i.p. Ten to 15 minutes later, after anesthesia was signaled by loss of the righting reflex and motor responses to tail pinch, Monastral blue B (used to estimate leakage of macromolecules from blood vessels), suspended in saline at 30 mg/ml (Sigma Co., St. Louis, Mo.), was injected 60 mg/kg i.v. at a rate of approximately 0.2 ml/100 g body weight/min into a branch of the femoral vein. Procedures for inducing vascular leakage began three minutes after Monastral blue infusion.
# This model of vasogenic edema in brain tissues was first described by Chan et al. (1983). Anesthetized rats were mounted on a David Kopf stereotaxic instrument and a 2 to 2.5 cm midline incision made in the shaved scalp. After parting the skin and connective tissue to expose the skull, a 60 mm^2 plate, connected to a brass cup filled with dry ice and acetone and maintained at -50° C., was applied to the skull for four minutes. One hour later, the animal was perfused through the aorta with saline, followed by 10% NBF, and then the brain was removed and stored in 10% NBF for at least two days before further analysis. Sections of membranes covering the cortex were also dissected from the underlying tissues and separately examined.
# To measure the area of dye distribution and the intensity of dye staining on the surfaces of the tissues, we used an image-processing system (JAVA, Jandel Video Analysis System, Corte Madera, Calif.) in which a video image, composed of pixels with different gray intensities, was subjected to numeric analysis. Samples of the abdominal muscle and brain were placed on a non-reflective coated glass board illuminated by six 60 watt fluorescent bulbs placed 1.65 m above the tissues and the images recorded under these constant conditions, without magnification, on video film. The areas of dye distribution were demarcated with a mouse-pointer device and the average intensity in the defined areas was obtained. […]
# [3] = test system: epinephrine-induced pulmonary edema; assay: Epinephrine-induced pulmonary edema; format: in vivo, rat; details: 10 nmol/kg i.v. 10 minutes before epinephrine bitartrate 10 μg/kg i.v.; lungs 30 minutes after Epi; Saline + Epi 6.2 ± 0.3
# Description: Male Sprague-Dawley rats weighing 260±9 g (Simonsen Labs, Gilroy, Calif.) were used in all experiments. […] This single dose of Epi is sufficient to produce a non-lethal pulmonary edema in the pentobarbital-anesthetized rat. Thirty minutes after Epi, animals were euthanized with concentrated pentobarbital and the lungs were removed. […] Lungs were blotted on paper towels and weighed (wet wt.), then placed in a 80° C. oven for 24 hour and re-weighed again (dry wt.). The value 1000 (wet wt.-dry wt.)/body wt. was termed the edema index. All data are presented as mean ± SEM. Statistical significance was assessed by analysis of variance (ANOVA) with the Studentized range-test.
# [4] = test system: vascular leakage from abdominal muscle after celiotomy; assay: Skeletal muscle injury (celiotomy): Monastral blue vascular leakage; format: in vivo, rat; details: for Lesion Size (x104): area x intensity; for Area (mm^2) of dye staining: samples 30 minutes after celiotomy
# Description: as §1
# The abdomen was shaved and a 4 cm scalpel cut was made in the midline. After manually parting the skin, an incision of equal length was made in the rectus abdominus and the skin was then pushed together to cover the wound. Thirty minutes after celiotomy, the rat was euthanized with an i.v. overdose of pentobarbital and the skin and muscle surrounding the site of incision were removed and fixed in 10% neutral-buffered formalin (NBF) for at least 2 days before further analysis.
# To measure the area of dye distribution and the intensity of dye staining on the surfaces of the tissues, we used an image-processing system (JAVA, Jandel Video Analysis System, Corte Madera, Calif.) in which a video image, composed of pixels with different gray intensities, was subjected to numeric analysis. Samples of the abdominal muscle and brain were placed on a non-reflective coated glass board illuminated by six 60 watt fluorescent bulbs placed 1.65 m above the tissues and the images recorded under these constant conditions, without magnification, on video film. The areas of dye distribution were demarcated with a mouse-pointer device and the average intensity in the defined areas was obtained. To calibrate light intensity on the JAVA system, various concentrations of Monastral blue B (0.0625 to 16 mg/ml) were placed on white filter paper and the intensity scale set from 0 to 255 units. The relationship of light intensity, which is the degree of blueness in arbitrary units, to Monastral blue B concentrations (mg/ml) was: light intensity =124+116 log MB, an equation obtained by linear regression with a correlation coefficient of r= 0.98. The term "lesion size", applied to the area of staining multiplied by its light intensity, represents a two-dimensional measurement of vascular leakage. This assessment was considered adequate because the injuries were to the surfaces of the muscle and cortex and the lesions were not more than a few mm deep. To further characterize the sites of dye leakage from blood vessels, samples of muscle and cortex, cut to approximately 500 μm thickness, were mounted in glycerol gelatin for microscopic examination.
# Animals were randomly assigned to treatments using a paired control design with a minimum of 6 rats per group. Data were expressed as the mean ± S.E.M. and the ED50 and 95% confidence limits were estimated by the method of Litchfield and Wilcoxon (1949). The Student's test was used for comparison of groups.
molecule,measurement,setting,value
LANT-6,swelling after heat injury,"[1]; 0.5 mg/kg i.v., control 69±2%, N=6 pairs, P<0.001",2±1%
Kinetensin,"ED20, inhibition of heat-induced edema","[1]; i.v. 10 minutes before heat, dose range 200-800 nmol/kg",420 nmol/kg
"COc1ccccc1CN[C@H]1C2CCN(CC2)[C@H]1C(c1ccccc1)c1ccccc1 [CP-96,345, reference compound]",Increase in Water Content of Heated Paw,"[1]; 4 mg/kg i.v. 10 minutes before 58° C. water for one minute, 30 minutes later, saline 1117 ± 33, not significantly different",1057 ± 24 mg
same,salivary secretion induced by substance P,substance P,prevent salivary secretion
N-acetyl-neurotensin (8-13) [AcNT8-13],hypotensive effect (blood pressure over 30 minutes),blood pressure,lacked hypotensive effect
same,Lesion Size (x103),"[2]; area x intensity, saline 5.7 ± 0.2",2.4 ± 0.3 x103
same,Area (mm^2) of dye staining,"[2]; brain removed sixty minutes later, saline 38 ± 2",21 ± 2 mm^2
same,Intensity of dye staining,[2]; saline 151 ± 4,119 ± 4
same,"ED50 (nmol/kg), inhibition of heat-induced edema",[1]; i.v. 10 minutes before heat,2.1 nmol/kg
same,"ED50 (μg/kg), inhibition of heat-induced edema",[1]; i.v. 10 minutes before heat,1.8 µg/kg
same,"Edema Index, 1000 (wet wt.-dry wt.)/body wt.",[3],4.9 ± 0.2
same,Lesion Size (x104),"[4]; 4 nmol/kg i.v. 5 minutes after celiotomy, saline 10.4 ± 0.5",5.3 ± 0.4 x104
same,Intensity of dye staining,"[4]; 4 nmol/kg i.v. 5 minutes after celiotomy, saline 137 ± 31",108 ± 5
same,Area (mm^2) of dye staining,"[4]; 4 nmol/kg i.v. 5 minutes after celiotomy, saline 758 ± 39",493 ± 27 mm^2
same,Lesion Size (x104),"[4]; 4 nmol/kg i.v. 10 minutes before celiotomy, saline 12.7 ± 0.4",5.0 ± 0.2 x104
same,Intensity of dye staining,"[4]; 4 nmol/kg i.v. 10 minutes before celiotomy, saline 149 ± 2",126 ± 2
same,Area (mm^2) of dye staining,"[4]; 4 nmol/kg i.v. 10 minutes before celiotomy, saline 852 ± 27",399 ± 18 mm^2
"neuromedin N (IPYIL; Neuromedin N; UniProt P30990 144-148, looked up) [peptide of the neurotensin family]","ED50 (nmol/kg), inhibition of heat-induced edema",[1]; i.v. 10 minutes before heat,10.0 nmol/kg
same,"ED50 (μg/kg), inhibition of heat-induced edema",[1]; i.v. 10 minutes before heat,7.5 µg/kg
xenopsin,"ED50 (nmol/kg), inhibition of heat-induced edema",[1]; i.v. 10 minutes before heat,0.9 nmol/kg
same,"ED50 (μg/kg), inhibition of heat-induced edema",[1]; i.v. 10 minutes before heat,0.88 µg/kg
neurotensin (8-13) [NT (8-13)],hypotensive effect (blood pressure over 30 minutes),blood pressure,lacked hypotensive effect
same,swelling response (paw volume change),"[1]; FIG. 1, different doses before 58° C. water, paw volume up to 30 minutes",dose-dependent suppression
same,"ED50 (nmol/kg), inhibition of heat-induced edema",[1]; i.v. 10 minutes before heat,1.9 nmol/kg
same,"ED50 (μg/kg), inhibition of heat-induced edema",[1]; i.v. 10 minutes before heat,1.6 µg/kg
same,"Edema Index, 1000 (wet wt.-dry wt.)/body wt.",[3],4.7 ± 0.2
